Experimental data published in ChEMBL document CHEMBL1201862, “PubChem BioAssay data set” (2004).
Blank lines part the entries; values can stand above or below the compound they belong to. Activity calls are given as the source filed them.

Experiments:
[1] = target: T1, Serine/threonine-protein phosphatase (Candida dubliniensis (strain CD36 / CBS 7987 / NCPF 3949 / NRRLY-17841) (Yeast), UniProt B9W6M3); assay: blockers of CaCl2-induced CDRE-lacZ signaling – S. cerevisiae, luminescence, secondary, dose response (AID 2388); format: functional, cell-based;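 further: yeast reporter cells carrying a calcineurin-responsive lacZ construct stimulated with calcium chloride; luminescent beta-galactosidase reporter signal in whole cells rather than isolated phosphatase activity; potency for inhibition where a drop in reporter signal means calcineurin blockade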
T1 sequence (B9W6M3 whole entry): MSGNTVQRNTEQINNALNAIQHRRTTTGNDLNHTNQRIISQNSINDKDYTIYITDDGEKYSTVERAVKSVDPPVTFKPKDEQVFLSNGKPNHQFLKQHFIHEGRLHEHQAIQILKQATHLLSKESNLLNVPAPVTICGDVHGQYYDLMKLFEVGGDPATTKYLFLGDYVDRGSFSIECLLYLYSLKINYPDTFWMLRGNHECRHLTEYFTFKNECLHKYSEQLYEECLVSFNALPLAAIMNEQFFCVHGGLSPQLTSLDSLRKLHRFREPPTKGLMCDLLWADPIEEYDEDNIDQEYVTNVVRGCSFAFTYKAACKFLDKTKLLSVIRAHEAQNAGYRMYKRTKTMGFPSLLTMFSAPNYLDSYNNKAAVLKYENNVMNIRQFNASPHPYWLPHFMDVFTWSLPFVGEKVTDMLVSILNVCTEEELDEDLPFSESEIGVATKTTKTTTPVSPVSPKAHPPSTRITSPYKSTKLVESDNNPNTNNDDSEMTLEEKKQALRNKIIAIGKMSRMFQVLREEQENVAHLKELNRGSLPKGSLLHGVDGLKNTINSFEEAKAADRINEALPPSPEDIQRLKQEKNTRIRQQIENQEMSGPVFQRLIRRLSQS

[2] = target: T2, Histone-lysine N-methyltransferase NSD2 (Homo sapiens, UniProt O96028); format: biochemical
T2 sequence (O96028 whole entry): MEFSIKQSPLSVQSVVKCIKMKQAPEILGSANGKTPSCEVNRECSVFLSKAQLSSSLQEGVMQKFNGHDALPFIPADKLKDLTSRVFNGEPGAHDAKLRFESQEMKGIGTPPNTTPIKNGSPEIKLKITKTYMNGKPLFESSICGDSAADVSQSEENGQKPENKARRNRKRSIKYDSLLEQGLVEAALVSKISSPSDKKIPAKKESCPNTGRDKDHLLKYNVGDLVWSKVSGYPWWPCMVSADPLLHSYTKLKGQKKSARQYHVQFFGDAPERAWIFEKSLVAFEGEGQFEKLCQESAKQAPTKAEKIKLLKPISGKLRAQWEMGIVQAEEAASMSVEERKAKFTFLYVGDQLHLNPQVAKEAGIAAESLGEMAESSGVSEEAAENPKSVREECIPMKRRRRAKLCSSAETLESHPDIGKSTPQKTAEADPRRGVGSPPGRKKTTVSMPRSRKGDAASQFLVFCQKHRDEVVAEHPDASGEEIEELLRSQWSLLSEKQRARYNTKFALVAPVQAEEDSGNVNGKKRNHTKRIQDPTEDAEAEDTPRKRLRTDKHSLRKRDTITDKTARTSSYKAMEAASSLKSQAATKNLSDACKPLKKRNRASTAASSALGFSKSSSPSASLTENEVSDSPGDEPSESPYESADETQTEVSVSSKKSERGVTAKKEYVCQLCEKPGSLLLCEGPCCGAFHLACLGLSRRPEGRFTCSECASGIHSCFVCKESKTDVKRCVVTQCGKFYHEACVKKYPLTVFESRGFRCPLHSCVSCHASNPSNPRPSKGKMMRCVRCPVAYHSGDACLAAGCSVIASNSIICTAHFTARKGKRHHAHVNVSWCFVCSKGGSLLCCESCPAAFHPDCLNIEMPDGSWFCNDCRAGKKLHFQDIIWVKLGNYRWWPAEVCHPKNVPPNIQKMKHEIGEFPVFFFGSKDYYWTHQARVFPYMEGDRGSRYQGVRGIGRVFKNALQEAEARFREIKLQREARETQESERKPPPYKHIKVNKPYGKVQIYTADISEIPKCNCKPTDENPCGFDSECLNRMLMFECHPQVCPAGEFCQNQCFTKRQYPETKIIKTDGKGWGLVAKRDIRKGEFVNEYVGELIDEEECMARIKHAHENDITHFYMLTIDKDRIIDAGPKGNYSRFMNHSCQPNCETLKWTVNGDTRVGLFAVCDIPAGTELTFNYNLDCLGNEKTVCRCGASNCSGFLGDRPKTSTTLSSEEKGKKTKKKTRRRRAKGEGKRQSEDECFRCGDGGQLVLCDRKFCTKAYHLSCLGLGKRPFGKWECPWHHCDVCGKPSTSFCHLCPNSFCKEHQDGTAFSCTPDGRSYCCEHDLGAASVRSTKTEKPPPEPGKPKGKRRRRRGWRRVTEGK

[3] = target: Multidrug resistance protein CDR1 (Candida albicans, UniProt P43071); assay: inhibition of Nile Red efflux via Candida CDR1 – S. cerevisiae AD1-8u, singleplex, Cherry Pick1 hits, dose response (AID 588606); format: functional
[4] = loss of viability in HepG2 cells – cell-based, CellTiter-Glo, cherry-picked, cytotoxicity control for Shn3 inhibitor project, dose response (AID 624134); format: functional
[5] = target: Casein kinase II subunit alpha (Homo sapiens, UniProt P68400); format: functional
[6] = target: Tyrosine-protein kinase JAK3 (Homo sapiens, UniProt P52333); format: functional
Activin receptor type-1 = Activin receptor type-1 (Homo sapiens, UniProt Q04771); assay: Navigating the Kinome. Panel member name: ACVR1; format: functional
[7] = target: Glycogen synthase kinase-3 alpha (Homo sapiens, UniProt P49840); format: functional;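 further: GSK3A result taken from a broad kinome-wide kinase panel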
[8] = target: STE20-like serine/threonine-protein kinase (Homo sapiens, UniProt Q9H2G2); format: functional
[9] = target: Protein kinase C iota type (Homo sapiens, UniProt P41743); format: functional;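 further: measured within a kinome-wide kinase panel, PRKCI as panel member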
[10] = target: Serine/threonine-protein kinase PLK3 (Homo sapiens, UniProt Q9H4B4); format: functional
[11] = target: Mitogen-activated protein kinase kinase kinase kinase 4 (Homo sapiens, UniProt O95819); format: functional
[12] = target: Mitogen-activated protein kinase 12 (Homo sapiens, UniProt P53778); format: functional;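 further: measured as one member of a kinome-wide kinase profiling panel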
[13] = target: Leukocyte tyrosine kinase receptor (Homo sapiens, UniProt P29376); assay: Navigating the Kinome. Panel member name: LTK; format: functional
[14] = target: Calcium/calmodulin-dependent protein kinase type II subunit gamma (Homo sapiens, UniProt Q13555); format: functional
[15] = target: BDNF/NT-3 growth factors receptor (Homo sapiens, UniProt Q16620); format: functional;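 further: NTRK2 measured as one member of a broad kinome-wide kinase profiling panel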
Albumin = Albumin (Bos taurus, UniProt P02769); assay: Counterscreen for inhibitors of T-cell receptor (TCR)-CD3 interaction: Fluorescence-based biochemical high throughput dose response assay to identify inhibitors of T-cell receptor (TCR)-CD3 interaction using a TAMRA-labeled BSA probe.; format: functional
Sequence of Albumin (P02769 whole entry): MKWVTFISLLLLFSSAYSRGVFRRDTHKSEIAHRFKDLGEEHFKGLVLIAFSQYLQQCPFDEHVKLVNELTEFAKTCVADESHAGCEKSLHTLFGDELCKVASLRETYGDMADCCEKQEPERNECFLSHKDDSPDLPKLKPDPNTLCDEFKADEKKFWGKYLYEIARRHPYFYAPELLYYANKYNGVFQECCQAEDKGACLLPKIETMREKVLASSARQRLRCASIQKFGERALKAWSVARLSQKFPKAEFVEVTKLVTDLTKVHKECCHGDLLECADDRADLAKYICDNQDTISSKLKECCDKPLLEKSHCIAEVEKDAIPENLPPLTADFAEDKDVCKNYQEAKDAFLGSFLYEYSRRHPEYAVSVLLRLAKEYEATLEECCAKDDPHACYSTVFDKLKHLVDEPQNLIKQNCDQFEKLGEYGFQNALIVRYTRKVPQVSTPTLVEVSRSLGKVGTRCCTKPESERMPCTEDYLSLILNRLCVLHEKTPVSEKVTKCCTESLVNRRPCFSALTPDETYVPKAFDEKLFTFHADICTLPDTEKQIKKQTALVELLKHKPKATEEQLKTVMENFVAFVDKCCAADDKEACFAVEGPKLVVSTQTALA

Sequence of Leukocyte tyrosine kinase receptor (P29376 whole entry): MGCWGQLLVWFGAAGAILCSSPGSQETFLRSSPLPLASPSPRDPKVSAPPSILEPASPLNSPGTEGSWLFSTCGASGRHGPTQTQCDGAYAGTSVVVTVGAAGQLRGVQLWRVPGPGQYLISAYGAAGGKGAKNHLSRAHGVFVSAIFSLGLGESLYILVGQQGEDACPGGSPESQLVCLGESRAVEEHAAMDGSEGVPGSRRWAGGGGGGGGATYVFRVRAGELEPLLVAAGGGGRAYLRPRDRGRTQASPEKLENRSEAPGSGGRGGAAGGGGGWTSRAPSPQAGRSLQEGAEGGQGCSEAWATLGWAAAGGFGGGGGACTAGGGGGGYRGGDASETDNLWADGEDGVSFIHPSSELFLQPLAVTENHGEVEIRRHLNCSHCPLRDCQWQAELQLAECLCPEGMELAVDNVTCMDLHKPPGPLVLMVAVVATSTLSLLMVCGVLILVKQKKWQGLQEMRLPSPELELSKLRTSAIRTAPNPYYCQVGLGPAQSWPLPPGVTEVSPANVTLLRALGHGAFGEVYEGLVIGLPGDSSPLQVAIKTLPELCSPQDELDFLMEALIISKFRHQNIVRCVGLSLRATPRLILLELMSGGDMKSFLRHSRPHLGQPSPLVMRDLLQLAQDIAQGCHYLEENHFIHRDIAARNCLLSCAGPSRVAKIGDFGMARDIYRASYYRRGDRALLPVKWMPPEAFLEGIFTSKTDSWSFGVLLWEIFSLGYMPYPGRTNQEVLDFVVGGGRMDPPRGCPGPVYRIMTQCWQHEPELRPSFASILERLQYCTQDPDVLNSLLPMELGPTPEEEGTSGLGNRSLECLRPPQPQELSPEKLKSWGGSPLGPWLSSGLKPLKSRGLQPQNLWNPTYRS
Sequence of Activin receptor type-1 (Q04771 whole entry): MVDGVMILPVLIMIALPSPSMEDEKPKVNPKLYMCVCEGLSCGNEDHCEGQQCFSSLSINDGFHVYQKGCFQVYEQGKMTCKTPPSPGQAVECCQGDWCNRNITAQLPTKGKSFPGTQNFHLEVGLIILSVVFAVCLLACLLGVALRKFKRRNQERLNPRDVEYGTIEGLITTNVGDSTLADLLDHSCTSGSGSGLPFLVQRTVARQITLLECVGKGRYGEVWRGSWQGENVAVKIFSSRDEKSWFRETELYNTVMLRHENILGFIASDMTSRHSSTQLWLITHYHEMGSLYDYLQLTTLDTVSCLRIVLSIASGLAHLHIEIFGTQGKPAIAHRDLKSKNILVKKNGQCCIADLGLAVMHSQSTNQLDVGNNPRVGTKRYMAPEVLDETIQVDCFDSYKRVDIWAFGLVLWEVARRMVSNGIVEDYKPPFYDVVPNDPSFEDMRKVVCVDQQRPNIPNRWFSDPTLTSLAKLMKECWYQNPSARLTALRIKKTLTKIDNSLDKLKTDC
Sequence of Mitogen-activated protein kinase 12 (P53778 whole entry): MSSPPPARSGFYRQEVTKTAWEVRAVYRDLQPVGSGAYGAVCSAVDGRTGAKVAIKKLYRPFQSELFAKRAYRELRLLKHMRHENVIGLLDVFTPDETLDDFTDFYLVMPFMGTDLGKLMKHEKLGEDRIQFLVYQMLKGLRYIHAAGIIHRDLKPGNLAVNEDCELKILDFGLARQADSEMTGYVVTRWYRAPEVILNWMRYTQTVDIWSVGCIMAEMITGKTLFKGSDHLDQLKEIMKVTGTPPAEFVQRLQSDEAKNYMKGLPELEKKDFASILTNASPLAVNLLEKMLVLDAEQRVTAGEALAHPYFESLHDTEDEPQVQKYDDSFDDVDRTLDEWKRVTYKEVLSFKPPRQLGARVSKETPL
Sequence of Glycogen synthase kinase-3 alpha (P49840 whole entry): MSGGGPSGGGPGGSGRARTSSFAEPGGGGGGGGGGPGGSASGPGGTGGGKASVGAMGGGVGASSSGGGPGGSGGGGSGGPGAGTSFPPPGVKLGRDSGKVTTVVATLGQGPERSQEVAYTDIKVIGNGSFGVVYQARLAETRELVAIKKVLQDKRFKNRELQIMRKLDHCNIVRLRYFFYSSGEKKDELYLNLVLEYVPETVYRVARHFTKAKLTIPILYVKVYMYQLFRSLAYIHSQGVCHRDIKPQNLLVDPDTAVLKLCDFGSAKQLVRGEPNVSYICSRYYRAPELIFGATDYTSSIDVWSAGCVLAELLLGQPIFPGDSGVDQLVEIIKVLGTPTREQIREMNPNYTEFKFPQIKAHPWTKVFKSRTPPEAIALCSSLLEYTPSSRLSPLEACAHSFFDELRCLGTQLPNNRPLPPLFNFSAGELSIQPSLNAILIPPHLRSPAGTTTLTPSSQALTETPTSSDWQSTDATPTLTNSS
Sequence of STE20-like serine/threonine-protein kinase (Q9H2G2 whole entry): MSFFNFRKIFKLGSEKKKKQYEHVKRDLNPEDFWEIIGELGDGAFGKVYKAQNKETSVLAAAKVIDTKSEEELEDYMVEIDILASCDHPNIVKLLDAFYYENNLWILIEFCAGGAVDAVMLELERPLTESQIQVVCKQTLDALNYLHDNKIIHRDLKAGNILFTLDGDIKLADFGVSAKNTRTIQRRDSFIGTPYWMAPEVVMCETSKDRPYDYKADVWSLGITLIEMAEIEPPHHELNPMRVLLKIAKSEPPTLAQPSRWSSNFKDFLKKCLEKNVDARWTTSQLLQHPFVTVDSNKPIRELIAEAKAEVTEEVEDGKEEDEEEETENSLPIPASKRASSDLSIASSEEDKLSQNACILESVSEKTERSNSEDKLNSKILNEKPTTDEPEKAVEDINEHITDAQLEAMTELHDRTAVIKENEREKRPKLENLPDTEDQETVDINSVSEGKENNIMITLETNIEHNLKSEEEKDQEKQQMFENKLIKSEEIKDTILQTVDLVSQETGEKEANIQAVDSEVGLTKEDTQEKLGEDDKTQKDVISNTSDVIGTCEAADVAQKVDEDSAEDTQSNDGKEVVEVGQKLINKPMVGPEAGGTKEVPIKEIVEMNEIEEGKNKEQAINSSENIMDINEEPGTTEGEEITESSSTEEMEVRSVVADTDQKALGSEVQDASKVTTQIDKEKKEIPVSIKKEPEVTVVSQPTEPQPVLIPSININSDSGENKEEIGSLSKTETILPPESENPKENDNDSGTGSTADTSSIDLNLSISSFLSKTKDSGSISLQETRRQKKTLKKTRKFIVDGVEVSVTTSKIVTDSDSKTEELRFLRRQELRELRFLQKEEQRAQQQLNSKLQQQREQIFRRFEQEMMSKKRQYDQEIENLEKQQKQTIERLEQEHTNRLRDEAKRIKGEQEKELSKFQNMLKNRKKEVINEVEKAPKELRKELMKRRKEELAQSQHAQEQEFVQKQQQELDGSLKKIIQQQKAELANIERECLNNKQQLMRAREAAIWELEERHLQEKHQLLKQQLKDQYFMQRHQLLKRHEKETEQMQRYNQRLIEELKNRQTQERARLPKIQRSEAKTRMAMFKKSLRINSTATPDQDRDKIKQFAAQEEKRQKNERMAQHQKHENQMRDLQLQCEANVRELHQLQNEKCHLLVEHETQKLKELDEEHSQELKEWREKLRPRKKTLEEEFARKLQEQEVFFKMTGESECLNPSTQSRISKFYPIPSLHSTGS
Sequence of BDNF/NT-3 growth factors receptor (Q16620 whole entry): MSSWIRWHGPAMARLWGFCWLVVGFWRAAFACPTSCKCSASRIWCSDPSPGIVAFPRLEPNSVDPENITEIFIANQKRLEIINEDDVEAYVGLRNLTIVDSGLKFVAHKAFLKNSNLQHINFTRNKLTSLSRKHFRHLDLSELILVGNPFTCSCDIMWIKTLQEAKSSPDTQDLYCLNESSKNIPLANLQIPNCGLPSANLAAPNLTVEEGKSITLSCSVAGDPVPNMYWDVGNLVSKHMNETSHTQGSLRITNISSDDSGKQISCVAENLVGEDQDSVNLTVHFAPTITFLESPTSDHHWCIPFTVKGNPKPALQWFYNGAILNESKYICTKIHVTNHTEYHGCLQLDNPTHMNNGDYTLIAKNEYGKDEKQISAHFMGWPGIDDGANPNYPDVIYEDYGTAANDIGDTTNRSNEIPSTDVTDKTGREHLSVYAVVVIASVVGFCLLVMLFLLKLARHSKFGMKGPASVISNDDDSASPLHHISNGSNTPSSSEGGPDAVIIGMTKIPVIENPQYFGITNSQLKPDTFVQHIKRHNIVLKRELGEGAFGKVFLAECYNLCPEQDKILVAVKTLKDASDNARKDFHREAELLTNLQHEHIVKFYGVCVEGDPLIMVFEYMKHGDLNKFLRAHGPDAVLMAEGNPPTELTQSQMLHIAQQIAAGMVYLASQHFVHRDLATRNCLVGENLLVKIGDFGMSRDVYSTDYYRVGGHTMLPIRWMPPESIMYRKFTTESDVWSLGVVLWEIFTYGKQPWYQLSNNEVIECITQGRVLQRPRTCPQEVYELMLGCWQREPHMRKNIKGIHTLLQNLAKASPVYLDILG

SMILES: CN(C)S(=O)(=O)Oc1cccc(C(=O)Nc2ccc(Cl)c(Cl)c2)c1
EC50 [1]: > 180 µM (inactive)

SMILES: Cc1ccc2[nH]c(/C(C#N)=C/c3ccc(O)c(O)c3)nc2c1
AC50 [2]: 4.37 µM (active)
EC50 [3]: 13.4 µM (active)

SMILES: COC(=O)C1CN(C#N)N(c2ccc(Cl)cc2)C12c1ccccc1-c1ccccc12 (configuration not stated)
AC50 [4]: 8.85 µM (active)

Ki [5]: > 6.31 µM (inactive)
Ki [6]: > 1.58 µM (inactive)
Ki (Activin receptor type-1): 0.631 µM (active)
Ki [7]: > 50.1 µM (inactive)
Ki [8]: > 10 µM (inactive)
Ki [9]: > 5.01 µM (inactive)
Ki [10]: > 7.94 µM (inactive)
Ki [11]: 20 µM (active)
Ki [12]: > 6.31 µM (inactive)
Ki [13]: 1.26 µM (active)
Ki [14]: 6.31 µM (active)
Ki [15]: > 20 µM (inactive)
SMILES: Nc1noc2cccc(-c3cccc(O)c3)c12

SMILES: O=C1NC(=S)S/C1=C\C=C\c1ccc([N+](=O)[O-])o1
IC50 (Albumin): > 94.1 µM (inactive)
